Source: patent publication US20130101615A1, “METHODS FOR PREVENTING OR TREATING A DISEASE OR CONDITION ASSOCIATED WITH MYCOBACTERIUM AVIUM SUBSPECIES PARATUBERCULOSIS” (priority 2005, published 2013)
Entries after “also recorded” stand apart in the source; their conditions may differ. Like-named read-outs stand apart in the source and are kept apart here.

Legend:
M. avium 101 = type: cell-based, M. avium subspecies avium; conditions: for % ΔcGI: vs 3.2% DMSO control
MAP = assay: Growth inhibition of MAP (strain not stated or MAP strains in general); conditions: MAP strains in general
[1] = test system: MAP Dominic (ATCC 43545), isolated from human with Crohn's disease; type: cell-based, Mycobacterium avium subspecies paratuberculosis; conditions: vs 3.2% DMSO control
M. avium ATCC 25291 = type: cell-based, M. avium subspecies avium; conditions: for % ΔcGI: M. avium 25291, vs 3.2% DMSO control
[2] = test system: MAP 303 (ruminant with Johne's disease); assay: Radiometric BACTEC growth inhibition, MAP 303; type: cell-based, Mycobacterium avium subspecies paratuberculosis; conditions: Bovine MAP 303, vs 3.2% DMSO control
MAP ATCC 19698 (bovine) = type: cell-based, Mycobacterium avium subspecies paratuberculosis; conditions: for % ΔcGI: Bovine MAP 19698, vs 3.2% DMSO control
[3] = test system: MAP UCF 4, isolated from human with Crohn's disease; assay: Radiometric BACTEC growth inhibition, MAP UCF4; type: cell-based, Mycobacterium avium subspecies paratuberculosis; conditions: for % ΔcGI: Human MAP UCF4, vs 3.2% DMSO control
MAP and M. avium strains = assay: Radiometric BACTEC growth inhibition, all strains tested; type: cell-based, Mycobacterium avium; conditions: any strain tested (MAP and M. avium)
MAP and M. tuberculosis = type: in vivo, Mice; conditions: 15 μg i.p. in combination with Ag85B-ESAT-6 fusion protein, CFA then IFA; challenge at week 8
[4] = 1 μg/ml, Human MAP Dominic Expt. 1
[5] = 1 μg/ml, Human MAP Dominic Expt. 2
[6] = 4 μg/ml, Human MAP Dominic Expt. 1
[7] = 4 μg/ml, Human MAP Dominic Expt. 2
[8] = 16 μg/ml, Human MAP Dominic Expt. 1
[9] = 16 μg/ml, Human MAP Dominic Expt. 2
[10] = 64 μg/ml, Human MAP Dominic Expt. 1
[11] = 64 μg/ml, Human MAP Dominic Expt. 2

## CC[C@@]1([C@@H]2O[C@@H]([C@H]3O[C@@](O)(CO)[C@H](C)C[C@@H]3C)C[C@@H]2C)CC[C@H]([C@]2(C)CC[C@]3(C[C@H](O)[C@@H](C)[C@@H]([C@@H](C)[C@@H](OC)[C@H](C)C(=O)O)O3)O2)O1 [Monensin, monensin]
M. avium 101
  effect on growth, in words: no inhibition
M. avium 101; 1 μg/ml
  % ΔcGI: 7%
M. avium 101; 4 μg/ml
  % ΔcGI: 3%
M. avium 101; 16 μg/ml
  % ΔcGI: 4%
M. avium 101; 64 μg/ml
  % ΔcGI: 8%
MAP
  effect on growth of MAP, in words: dose-dependent inhibition against all MAP strains
[1]; [4]
  % ΔcGI: −52%
[1]; [5]
  % ΔcGI: −46%
[1]; [6]
  % ΔcGI: −77%
[1]; [7]
  % ΔcGI: −71%
[1]; [8]
  % ΔcGI: −93%
[1]; [9]
  % ΔcGI: −87%
[1]; [10]
  % ΔcGI: −94%
[1]; [11]
  % ΔcGI: −92%
M. avium ATCC 25291; 1 μg/ml
  % ΔcGI: −25%
M. avium ATCC 25291; 4 μg/ml
  % ΔcGI: −54%
M. avium ATCC 25291; 16 μg/ml
  % ΔcGI: −69%
M. avium ATCC 25291; 64 μg/ml
  % ΔcGI: −87%
[2]; 1 μg/ml
  % ΔcGI: −21%
[2]; 4 μg/ml
  % ΔcGI: −73%
[2]; 16 μg/ml
  % ΔcGI: −94%
[2]; 64 μg/ml
  % ΔcGI: −97%
MAP ATCC 19698 (bovine); 1 μg/ml
  % ΔcGI: −14%
MAP ATCC 19698 (bovine); 4 μg/ml
  % ΔcGI: −45%
MAP ATCC 19698 (bovine); 16 μg/ml
  % ΔcGI: −62%
MAP ATCC 19698 (bovine); 64 μg/ml
  % ΔcGI: −65%
[3]; 1 μg/ml
  % ΔcGI: −73%
[3]; 4 μg/ml
  % ΔcGI: −93%
[3]; 16 μg/ml
  % ΔcGI: −96%
[3]; 64 μg/ml
  % ΔcGI: −97%

## C[C@@H]1C[C@@H]([C@H](O)CC2CC(=O)NC(=O)C2)C(=O)[C@@H](C)C1 [Cycloheximide, cycloheximide]
M. avium 101
  effect on growth, in words: no affect
M. avium 101; 1 μg/ml
  % ΔcGI: 6%
M. avium 101; 4 μg/ml
  % ΔcGI: 7%
M. avium 101; 16 μg/ml
  % ΔcGI: 1%
M. avium 101; 64 μg/ml
  % ΔcGI: 5%
MAP
  effect on growth of MAP, in words: no dose-dependent inhibition on any MAP strain
[1]; [4]
  % ΔcGI: 15%
[1]; [5]
  % ΔcGI: 9%
[1]; [6]
  % ΔcGI: −4%
[1]; [7]
  % ΔcGI: 0%
[1]; [8]
  % ΔcGI: −8%
[1]; [9]
  % ΔcGI: −4%
[1]; [10]
  % ΔcGI: −1%
[1]; [11]
  % ΔcGI: −7%
M. avium ATCC 25291; 1 μg/ml
  % ΔcGI: 0%
M. avium ATCC 25291; 4 μg/ml
  % ΔcGI: −8%
M. avium ATCC 25291; 16 μg/ml
  % ΔcGI: −7%
M. avium ATCC 25291; 64 μg/ml
  % ΔcGI: −57%
M. avium ATCC 25291; 64 μg/ml, M. avium ATCC 25291
  %−ΔcGI (percent decrease in cumulative GI): 57%
[2]; 1 μg/ml
  % ΔcGI: 3%
[2]; 4 μg/ml
  % ΔcGI: 4%
[2]; 16 μg/ml
  % ΔcGI: −5%
[2]; 64 μg/ml
  % ΔcGI: −4%
MAP ATCC 19698 (bovine); 1 μg/ml
  % ΔcGI: −2%
MAP ATCC 19698 (bovine); 4 μg/ml
  % ΔcGI: −7%
MAP ATCC 19698 (bovine); 16 μg/ml
  % ΔcGI: −12%
MAP ATCC 19698 (bovine); 64 μg/ml
  % ΔcGI: −9%
[3]; 1 μg/ml
  % ΔcGI: 1%
[3]; 4 μg/ml
  % ΔcGI: −7%
[3]; 16 μg/ml
  % ΔcGI: −4%
[3]; 64 μg/ml
  % ΔcGI: −12%

## C=CC[C@@H]1/C=C(\C)C[C@H](C)C[C@H](OC)[C@H]2O[C@@](O)(C(=O)C(=O)N3CCCC[C@H]3C(=O)O[C@H](/C(C)=C/[C@@H]3CC[C@@H](O)[C@H](OC)C3)[C@H](C)[C@@H](O)CC1=O)[C@H](C)C[C@@H]2OC [Tacrolimus, tacrolimus (FK506)]
M. avium 101
  effect on growth, in words: the most inhibition on M. avium 101 of all six strains studied
M. avium 101; 1 μg/ml
  % ΔcGI: −34%
M. avium 101; 4 μg/ml
  % ΔcGI: −43%
M. avium 101; 16 μg/ml
  % ΔcGI: −40%
M. avium 101; 64 μg/ml
  % ΔcGI: −52%
MAP
  effect on growth of MAP, in words: the least inhibition of the three “immunosuppressants” studied
[1]; [4]
  % ΔcGI: 28%
[1]; [5]
  % ΔcGI: 5%
[1]; [6]
  % ΔcGI: 9%
[1]; [7]
  % ΔcGI: 9%
[1]; [8]
  % ΔcGI: 21%
[1]; [9]
  % ΔcGI: −10%
[1]; [10]
  % ΔcGI: 0%
[1]; [11]
  % ΔcGI: −21%
M. avium ATCC 25291; 1 μg/ml
  % ΔcGI: −23%
M. avium ATCC 25291; 4 μg/ml
  % ΔcGI: −3%
M. avium ATCC 25291; 16 μg/ml
  % ΔcGI: 11%
M. avium ATCC 25291; 64 μg/ml
  % ΔcGI: 53%
M. avium ATCC 25291; M. avium ATCC 25291
  effect on growth, in words: no inhibition; also recorded: enhanced growth
[2]; 1 μg/ml
  % ΔcGI: 5%
[2]; 4 μg/ml
  % ΔcGI: 3%
[2]; 16 μg/ml
  % ΔcGI: −5%
[2]; 64 μg/ml
  % ΔcGI: −27%
MAP ATCC 19698 (bovine); 1 μg/ml
  % ΔcGI: 8%
MAP ATCC 19698 (bovine); 4 μg/ml
  % ΔcGI: −3%
MAP ATCC 19698 (bovine); 16 μg/ml
  % ΔcGI: −5%
MAP ATCC 19698 (bovine); 64 μg/ml
  % ΔcGI: −26%
MAP ATCC 19698 (bovine); 64 μg/ml, MAP ATCC 19698
  %−ΔcGI (percent decrease in cumulative GI): 26%
[3]; 1 μg/ml
  % ΔcGI: 6%
[3]; 4 μg/ml
  % ΔcGI: −19%
[3]; 16 μg/ml
  % ΔcGI: −18%
[3]; 64 μg/ml
  % ΔcGI: −43%
[3]; 64 μg/ml, MAP UCF 4
  %−ΔcGI (percent decrease in cumulative GI): 43%

## O=C1NC(=O)c2ccccc21 [Phthalimide, phthalimide]
M. avium 101
  effect on growth, in words: no dose-dependent inhibition
M. avium 101; 1 μg/ml
  % ΔcGI: −3%
M. avium 101; 4 μg/ml
  % ΔcGI: 4%
M. avium 101; 16 μg/ml
  % ΔcGI: 2%
M. avium 101; 64 μg/ml
  % ΔcGI: −2%
[1]; [4]
  % ΔcGI: −3%
[1]; [5]
  % ΔcGI: −1%
[1]; [6]
  % ΔcGI: 7%
[1]; [7]
  % ΔcGI: 0%
[1]; [8]
  % ΔcGI: 0%
[1]; [9]
  % ΔcGI: 1%
[1]; [10]
  % ΔcGI: 2%
[1]; [11]
  % ΔcGI: 4%
M. avium ATCC 25291; 1 μg/ml
  % ΔcGI: 2%
M. avium ATCC 25291; 4 μg/ml
  % ΔcGI: 4%
M. avium ATCC 25291; 16 μg/ml
  % ΔcGI: 1%
M. avium ATCC 25291; 64 μg/ml
  % ΔcGI: 12%
M. avium ATCC 25291; M. avium ATCC 25291
  effect on growth, in words: no dose-dependent inhibition
[2]; 1 μg/ml
  % ΔcGI: −2%
[2]; 4 μg/ml
  % ΔcGI: 3%
[2]; 16 μg/ml
  % ΔcGI: −13%
[2]; 64 μg/ml
  % ΔcGI: 6%
MAP ATCC 19698 (bovine); 1 μg/ml
  % ΔcGI: −2%
MAP ATCC 19698 (bovine); 4 μg/ml
  % ΔcGI: −10%
MAP ATCC 19698 (bovine); 16 μg/ml
  % ΔcGI: 1%
MAP ATCC 19698 (bovine); 64 μg/ml
  % ΔcGI: 0%
[3]; 1 μg/ml
  % ΔcGI: 4%
[3]; 4 μg/ml
  % ΔcGI: −2%
[3]; 16 μg/ml
  % ΔcGI: 1%
[3]; 64 μg/ml
  % ΔcGI: 3%
MAP and M. avium strains
  dose-dependent inhibition, in words: no dose-dependent effect on any strain tested
MAP and M. avium strains; listed as phthalimide
  dose-dependent inhibition, in words: did not exhibit a dose-dependent inhibition of any strain

B1: AhpD: Alkyl hydroperoxide reductase D, immunogenic MAP protein, recombinant antigen (protein, UniProt A0QGI9 1-178, looked up)
Alkyl hydroperoxide reductase …: MSVENLKEALPEYAKDLKLNLGSITRTTELNEEQLWGTLLASAAATRNTQVLTEIGAEAADTLSAEAYHAALGAASVMAMNNVFYRGRGFLDGKYDDLRAGLRMNIIGNPGVEKANFELWCFAVSAINGCPDCVASHEHTLREAGVSRETIQEALKAAAIISGVAQAIVTSQTLATAG
MAP and M. tuberculosis
  protection against infection after immunization: elicits a response capable of protecting against MAP and M. tuberculosis infection
